Test results reported in patent publication US20120283216A1, “FUNGICIDAL 2-(BICYCLIC ARYLOXY)CARBOXAMIDES” (priority 2009, published 2012).

What was measured:
Format in all cases: in vivo
[1] = test system: Blumeria graminis f. sp. tritici; test: Test A: wheat powdery mildew, preventive spray on wheat seedlings, visual disease rating; conditions: preventive spray at 40 ppm, rated 8 days after inoculation; for pest or weed control at 40 ppm: Blumeria graminis, 192 h, read-out: Test A disease control rating (100 = 100% disease control, 0 = no disease control relative to the controls)
In short: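 After 8 days in a 20° C. growth chamber, disease was scored visually as % control versus untreated (100 = full control). Plants had received a run-off spray of 40 ppm (≈800 g/ha label rate) in acetone/water plus surfactant, with spore-dust inoculation one day later.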

Septoria tritici = test: Test B: wheat leaf blotch, preventive spray on wheat seedlings, visual disease rating; conditions: preventive spray at 40 ppm, rated after 48 h + 19 days; for pest or weed control at 40 ppm: Zymoseptoria tritici, 504 h, read-out: Test B disease control rating (100 = 100% disease control, 0 = no disease control relative to the controls)
In short: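 Visual ratings of percent disease control relative to untreated controls were made 19 days after a 48 h saturated-atmosphere incubation at 20° C. Plants had been spore-inoculated one day after a preventive run-off spray at 40 ppm, equivalent to 800 g/ha.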

Botrytis cinerea = test: Test C: tomato botrytis, preventive spray on tomato seedlings, visual disease rating; conditions: preventive spray at 40 ppm, rated after 48 h + 3 days; for pest or weed control at 40 ppm: Botrytis cinerea, 120 h, read-out: Test C disease control rating (100 = 100% disease control, 0 = no disease control relative to the controls)
In short: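 Compounds applied at 40 ppm (≈800 g/ha) in acetone/water with surfactant, sprayed to run-off on tomato seedlings. Inoculated next day with B. cinerea spores; 48 h saturated humidity at 20 °C, then 3 days at 27 °C. Visual rating as % disease control versus untreated controls.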

| Structure (SMILES) | pest or weed control at 40 ppm [1] | pest or weed control at 40 ppm (Septoria tritici) | pest or weed control at 40 ppm (Botrytis cinerea) | Test A disease control rating (100 = 100% disease control, 0 = no disease control relative to the controls) [1] | Test B disease control rating (100 = 100% disease control, 0 = no disease control relative to the controls) (Septoria tritici) | Test C disease control rating (100 = 100% disease control, 0 = no disease control relative to the controls) (Botrytis cinerea) |
| --- | --- | --- | --- | --- | --- | --- |
| CCC(Oc1ccc2ccc(Br)cc2c1)C(=O)NC(C)(C)CN=CN(C)C (stereo not drawn) [Compound 15, 2-[(7-bromo-2-naphthalenyl)oxy]-N-[2-[[(dimethylamino)methylene]amino]-1,1-dimethylethyl]butanamide] | 43% | 100% | 100% | – | – | – |
| C#CC(C)(C)NC(=O)C(OC)Oc1ccc2ccc(OC)cc2c1 (stereo not drawn) [Compound 82] | – | – | – | 96% | 99% | 100% |
| COCC(C)(C)NC(=O)C(C)Oc1ccc2ccc(Br)cc2c1 (stereo not drawn) [Compound 24, 2-[(7-bromo-2-naphthalenyl)oxy]-N-(2-methoxy-1,1-dimethylethyl)propanamide] | 100% | 100% | 98% | – | – | – |
| CCC(Oc1ccc2ccc(C#N)cc2c1)C(=O)NC(C)(C)C (stereo not drawn) [Compound 33] | 62% | 99% | 95% | – | – | – |
| COCC(C)(C)NC(=O)C(OC)Oc1cnc2ccc(C#C[Si](C)(C)C)cc2c1 (stereo not drawn) [Compound 160] | – | – | – | 69% | 99% | 97% |
| CCC(Oc1cnc2ccc(OC)cc2c1)C(=O)NC(C)(C)COC (stereo not drawn) [Compound 146] | – | – | – | 0% | 100% | 99% |
| COCC(C)(C)NC(=O)C(OC)Oc1ccc2ccc(C#C[Si](C)(C)C)cc2c1 (stereo not drawn) [Compound 105] | – | – | – | 79% | 100% | 90% |
| CCCOc1ccc2ccc(OC(OC)C(=O)NC(C)(C)COC)cc2c1 (stereo not drawn) [Compound 124] | – | – | – | 98% | 100% | 99% |
| C#CC(C)(C)NC(=O)C(OC)Oc1ccc2ccc(C(F)F)cc2c1 (stereo not drawn) [Compound 80] | – | – | – | 0% | 93% | 100% |
| CCC(Oc1cnc2ccc(Br)cc2c1)C(=O)NC1(C(=O)OC)CC1 (stereo not drawn) [Compound 44] | – | – | – | 0% | 0% | 0% |
| CCC(Oc1ccc2ccc(Br)cc2c1)C(=O)NC(C)(C)C#N (stereo not drawn) [Compound 1] | – | – | – | 91% | 100% | 100% |
| CCC(Oc1ccc2ccc(OCOC)cc2c1)C(=O)NC(C)(C)C#N (stereo not drawn) [Compound 72] | – | – | – | 0% | 99% | 100% |
| CCC(Oc1ccc2ccc(Br)cc2c1)C(=O)NC(C)(C)COCOC (stereo not drawn) [Compound 20, 2-[(7-bromo-2-naphthalenyl)oxy]-N-[2-(methoxymethoxy)-1,1-dimethylethyl]butanamide] | 98% | 99% | 98% | – | – | – |
| C#CC(C)(C)NC(=O)C(OCC)Oc1ccc2ccc(OCC)cc2c1 (stereo not drawn) [Compound 122] | – | – | – | 0% | 100% | 98% |
| C#CC(C)(C)NC(=O)C(OC)Oc1ccc2ccc(OCC)cc2c1 (stereo not drawn) [Compound 69, N-(1,1-dimethyl-2-propyn-1-yl)-2-[(7-ethoxy-2-naphthalenyl)oxy]-2-methoxyacetamide] | 100% | 100% | 100% | – | – | – |
| COC(Oc1cnc2ccc(I)cc2c1)C(=O)NC1(C)CC1 (stereo not drawn) [Compound 64] | – | – | – | 84% | 99% | 100% |
| COC(Oc1ccc2ccc(I)cc2c1)C(=O)NC(C)(C)C#N (stereo not drawn) [Compound 104] | – | – | – | 94% | 100% | 99% |
| COCC(C)(C)NC(=O)C(C)Oc1cnc2ccc(Br)cc2c1 (stereo not drawn) [Compound 60] | – | – | – | 0% | 74% | 95% |
| COC(Oc1cnc2ccc(C#C[Si](C)(C)C)cc2c1)C(=O)NC(C)(C)C (stereo not drawn) [Compound 161] | – | – | – | 0% | 100% | 99% |
| C#CC(C)(C)NC(=O)C(CC)Oc1ccc2ccc(OCOC)cc2c1 (stereo not drawn) [Compound 73] | – | – | – | 0% | 100% | 99% |
| CCC(Oc1ccc2ccc(Br)cc2c1)C(=O)NC(C)(C)CC (stereo not drawn) [Compound 102] | – | – | – | 0% | 96% | 61% |
| CCC(Oc1cnc2ccc(Cl)cc2c1)C(=O)NC(C)(C)COC (stereo not drawn) [Compound 49] | – | – | – | 96% | 99% | 98% |
| CCC(Oc1cnc2ccc(Cl)cc2c1)C(=O)NC(C)(C)C (stereo not drawn) [Compound 40] | 92% | 100% | 99% | – | – | – |
| C#Cc1ccc2ncc(OC(CC)C(=O)NC(C)(C)CC)cc2c1 (stereo not drawn) [Compound 150] | – | – | – | 96% | 100% | 97% |
| CCC(Oc1cnc2ccc(Br)cc2c1)C(=O)NC(C)(C)COCOC (stereo not drawn) [Compound 58] | – | – | – | 99% | 100% | 99% |
| C#CC(C)(C)NC(=O)C(CC)Oc1cnc2ccc(Cl)cc2c1 (stereo not drawn) [Compound 41] | – | – | – | 0% | 96% | 96% |
| CCC(Oc1cnc2ccc(I)cc2c1)C(=O)NC(C)(C)CO (stereo not drawn) [Compound 52] | – | – | – | 0% | 45% | 82% |
